Results taken from ChEMBL document CHEMBL1126165, “Preparation and evaluation of some hydrophilic phenylacetyl-piperazines as peripherally selective -opioid receptor agonists” (Bioorg Med Chem Lett, 1992).

What was measured:
[1] = Ratio of antinociceptive activity measured using mouse acetylcholine induced abdominal constriction test by s.c. administration to that done by i.c.v.; format: functional, Abdomen
Mus musculus [2] = assay: Tested in vivo for antinociceptive activity using the mouse acetylcholine induced abdominal constriction test by intracerebroventricular (i.c.v.) administration; format: functional; settings: Abdomen, central
[3] = Lipophilicity was expressed as Log D; settings: octanol/water
Mus musculus [4] = assay: Tested in vivo for antinociceptive activity using the mouse acetylcholine induced abdominal constriction test by subcutaneous (s.c.) administration; format: functional; settings: Abdomen, sc

SMILES	Ratio [1]	ED50 (Mus musculus [2]) [mg/kg]	logD [3]	ED50 (Mus musculus [4]) [mg/kg]
CSc1ccc(CC(=O)N2CCN(C(C)=O)CC2CN2CC[C@H](O)C2)cc1 (some centres not stated)	20	0.075	0.6	1.52
CC(=O)N1CCN(C(=O)Cc2ccc(Cl)c(Cl)c2)C(CN2CC[C@H](O)C2)C1 (some centres not stated)	100	0.007	1.2	0.7
COC(=O)N1CCN(C(=O)Cc2ccc(Cl)c(Cl)c2)[C@H](CN2CCCC2)C1	1.5	0.0002	3.1	0.0003
COc1cccc(CC(=O)N2CCN(C(C)=O)CC2CN2CC[C@H](O)C2)c1 (some centres not stated)	–	–	0	–
COc1ccc(CC(=O)N2CCN(C(C)=O)CC2CN2CC[C@H](O)C2)cc1 (some centres not stated)	–	–	-0.1	–
CN(C(=O)Cc1ccc(Cl)c(Cl)c1)C(CN1CCCC1)c1cccc(OCC(=O)O)c1 (configuration not stated) [ICI-204448]	–	0.13	0.3	4.4
CC(=O)N1CCN(C(=O)Cc2ccc([S+](C)[O-])cc2)C(CN2CC[C@H](O)C2)C1 (some centres not stated)	–	–	< -0.5	–
CC(=O)N1CCN(C(=O)Cc2ccc([N+](=O)[O-])cc2)C(CN2CC[C@H](O)C2)C1 (some centres not stated)	200	0.024	0	4.8
CC(=O)N1CCN(C(=O)Cc2cc(F)cc(F)c2)C(CN2CC[C@H](O)C2)C1 (some centres not stated)	417	0.006	0.3	2.5
CC(=O)N1CCN(C(=O)Cc2ccc(S(C)(=O)=O)cc2)C(CN2CC[C@H](O)C2)C1 (some centres not stated)	2762	0.0008	< -0.5	2.21
CC(=O)N1CCN(C(=O)Cc2ccccc2)C(CN2CC[C@H](O)C2)C1 (some centres not stated)	–	–	-0.1	–
CC(=O)N1CCN(C(=O)Cc2cccc([N+](=O)[O-])c2)C(CN2CC[C@H](O)C2)C1 (some centres not stated)	–	0.006	–	0.74
CC(=O)N1CCN(C(=O)Cc2ccc(C(F)(F)F)cc2)C(CN2CC[C@H](O)C2)C1 (some centres not stated)	95	0.008	1	0.76
